Reference: ChEMBL document CHEMBL3507680, “University of Dundee, Gates Library screen for HepG2 cell viability”

Experiment: Human HepG2 cell viability assay in 384 well format
Type: toxicity, cell-based
Design: dose 125 nL, time 70.5 hour; concentration not given beside the values
Settings: HepG2 cells, read-out: Inhibition

Row | SMILES | cytotoxicity at 70.5 h
1 | CC(C)CN1CC(O)CN(C(=O)c2cccc(C(F)(F)F)c2)CC1=O (stereo unspecified) | 13.3%
2 | N#Cc1ccc(NCCCOCC2CCCO2)c(F)c1 (stereo unspecified) | 2%
3 | Cc1ccc(C(=O)N2CCCCC2CN(C)C)cc1 (stereo unspecified) | 4.31%
4 | Cc1cnn(CC2CCCCN2C(=O)c2c(C)noc2C)c1 (stereo unspecified) | -0.615%
5 | CCc1csc(C2CCCN(C(=O)c3ccc(OC)nn3)C2)n1 (stereo unspecified) | -9.56%
6 | CN1CCC(N(Cc2ccco2)S(=O)(=O)c2cc(Br)ccc2Br)CC1 | 1.03%
7 | Cc1cc(CN(C)Cc2csc(-c3ccc(C(C)C)cc3)n2)no1 | 14.4%
8 | CN1CCN(C(=O)c2cncc(CC3CCCN(C)C3)c2)CC1 (stereo unspecified) | 24.9%
9 | Cc1noc(-c2cccnc2N2CCOC(C)(c3cnn(C)c3)C2)n1 (stereo unspecified) | -6.06%
10 | CC(C)C(C)N(Cc1ccccn1)Cc1ccco1 (stereo unspecified) | -22.8%
11 | FC(F)(F)c1ccc(CN2CCN(Cc3cscn3)CC2)cc1 | -12.5%
12 | CCC(C)C(=O)N(CC(=O)OC)c1cccc(C)n1 (stereo unspecified) | 2.47%
13 | O=C(CN1CCSCC1c1ccccc1)N1CCOCC1 (stereo unspecified) | -3.64%
14 | COCCNc1nnc(-c2ccccn2)s1 | -4.27%
15 | COc1ccc(OC)c(C(C)NS(=O)(=O)c2cnn(C)c2)c1 (stereo unspecified) | -12%
16 | COCCN1CCC2(CC1)CC(c1cccnc1)C(=O)N2C (stereo unspecified) | 1.48%
17 | Cc1cnn(C2CN(Cc3nc(-c4ccccn4)no3)C2)c1 | 12.3%
18 | Cc1nnc2n1CC(CNc1cnc3ccccc3n1)CC2 (stereo unspecified) | -9.52%
19 | Cn1cccc1C(=O)N1CCC2(CCCN2c2ncccn2)CC1 | -13.8%
20 | CC(C)(CO)Nc1cc(-c2ccncc2)ncn1 | -2.83%
21 | CC(C)Cc1cc(CNC(=O)c2cccc3c2NCCC3)no1 | -8.61%
22 | CC(C)(C(=O)N[C@@H]1CCC[C@@H](O)[C@@H]1O)c1cccc(F)c1 | -4.01%
23 | CC(CN(C)Cc1cccc(-n2cccn2)c1)C(F)(F)F (stereo unspecified) | -1.16%

Row | SMILES | cytotoxicity at 70.5 h
24 | Cc1occc1C(=O)N1CCC2(CCC(C(=O)NCC3CC3)O2)CC1 (stereo unspecified) | -12.7%
25 | c1ccc(Cn2cc(CNCC3CCCN3c3cccnn3)cn2)cc1 (stereo unspecified) | 3.57%
26 | COc1cccc(OCC2CCCN(C(C)=O)C2)c1 (stereo unspecified) | -18.9%
27 | COc1ccc2nnc(C(=O)NC3CCCC3)nc2c1 | -4.15%
28 | CCc1nnc2n1CCN(C(=O)c1nc(-c3ccco3)sc1C)C2 | -6%
29 | Cc1nc(CN2CCN(C)C(=O)C23CCN(C(C)C)CC3)cs1 | -9.48%
30 | COc1ccc(OCc2sc(C3(O)CCCNCC3)nc2C)cc1 (stereo unspecified) | -10.3%
31 | CC(C)(C)NC(=O)C1CCCCN1Cc1nccn1CC(F)(F)F (stereo unspecified) | -0.987%
32 | CO[C@H]1C[C@@H](O)C12CCN(CCOc1ccc(Cl)cc1)CC2 | -1.42%
33 | CC(C(=O)Nc1ccc(N2CCCC2)nc1)n1cccn1 (stereo unspecified) | -0.411%
34 | CCN(CC)C(=O)c1nnn(-c2ccc(C)cc2)c1C1CC1 | -7.41%
35 | COc1ncccc1C(=O)N1CC[C@H]2C[C@@H](c3ccncn3)O[C@@H]2C1 | -18%
36 | CC(C)C1CN(C(=O)c2cn3cc(Cl)cnc3n2)CCCN1CC1CC1 (stereo unspecified) | 20.2%
37 | Cc1sc(NC(=O)CN2CCCC(c3ncc[nH]3)C2)c(C)c1C (stereo unspecified) | -14.9%
38 | CC(NC(=O)NCCCO)c1ccc2c(c1)OCCO2 (stereo unspecified) | -10.1%
39 | CC(Cn1cccn1)NCc1csc(-c2ccsc2)n1 (stereo unspecified) | -12.1%
40 | O=C(Cn1c(=O)nc2n1C(=O)N(c1ccccc1)C2)Nc1ccccc1 | -7.97%
41 | O=C(NCCN1CCOCC1)NCc1ccc(-n2cccn2)cc1 | 1.89%
42 | CC(=O)N1CCCC(c2ccc(Nc3nc(C)cc(C)n3)cn2)C1 (stereo unspecified) | -12%
43 | CC(C)Cc1cc(C(=O)N2CCCN(c3cccnn3)CC2)[nH]n1 | -5.32%
44 | CNS(=O)(=O)CCNc1cc(C)nc2cc(C)nn12 | -2.52%
45 | COC(=O)c1ccc(N2CCN(C(=O)c3ccco3)C(C)C2)cc1 (stereo unspecified) | -3.57%
46 | CC(=O)N1CCC2(CC1)CC(N1CCOCC1)c1ccc(C)cc12 (stereo unspecified) | -8.04%
